From patent EP0211268B1, “Slow-release topical formulations” (Zappia, Vincenzo, priority 1985, dated 1987)

Test: equilibrium dialysis test (slow release of minoxidil ion through a dialysis membrane)
Assay type: physicochemical
Details: 10 ml solution containing 0.45 mmoles, pH 4.4, equilibrated through a dialytic barrier with 130 ml of water at pH 4.4
From the text: A direct experimental evidence of the slow-release mechanism, characterizing the minoxidil-polyanion salts, is obtained by dialysis equilibrium tests, as shown in the enclosed Figure. […] If the dialysis solution is substituted, the equilibrium is recovered after dissociation of a further amount of salt. This process mimicks "in vitro" the drug's slow release action at the skin level, characterized by a constant and uniform absorption of the active principle, whose availability in time is provided by the continuous dissociation of the salt.
When the equilibrium conditions are reached at the points marked by the arrows, the equilibrium solution is removed, substituting it with 130 ml of water, till reestablishment of the new equilibrium conditions.

Cl.Nc1cc(N2CCCCC2)nc(N)[n+]1[O-] [minoxidil chloride]
minoxidil found outside the dialysis membrane at equilibrium: about 90%
